Assay results as given in US20220000894A1, “Substance for treatment or prevention of diseases, method for designing the same, and method for preparing the same” (priority 2018, published 2022).

Tested on: patients with allergic rhinitis
Assay: Clinical application trial for treatment of allergic rhinitis
Type: in vivo, human
Method: 1. Clinical data: 60 cases (a total number) of outpatients and inpatients with allergic rhinitis were enrolled, and were randomly divided into a treatment group with 30 patients and a control group with 30 patients.
2. Diagnosis criteria: 2 or more clinical symptoms such as sneezing, clear water-like nasal discharge, nasal congestion, and nasal itching, appearing continuously or continually for 1 hour or more every day. It may be accompanied by eye symptoms such as eye itching and conjunctival hyperemia. Common signs often include pale nasal mucosa, edema, and watery nasal discharge. Positive in the allergen skin prick test.
3. […] The patients in the control group orally took loratadine 10 mg per time, once day, for 30 days.
4. […] Total effective rate=cured rate+effective rate.

CCOC(=O)N1CCC(=C2c3ccc(Cl)cc3CCc3cccnc32)CC1 [loratadine]
recurrence after treatment (6-month follow-up / after drug discontinuance): allergic symptoms appeared after contact with allergens after drug discontinuance
Effective (number of patients) (30 patients per group): 20
Ineffective (number of patients) (30 patients per group): 10
Total effective rate (%) (cured rate + effective rate) (30 patients per group): 66.67%
Cured (number of patients) (30 patients per group, cured = symptoms and signs disappear for 60 days without recurrence): 0
adverse reactions occurred (control group of 30 patients): 5 cases
